Measured values taken from patent US8580762B2, “Substituted purine and 7-deazapurine compounds” (Epizyme, Inc., priority 2010, dated 2013).

molecular target: DOT1L(1-416) (Homo sapiens, UniProt Q8TEK3); experiment: Determination of IC50: DOT1L(1-416) methyltransferase assay, 3H-SAM, oligonucleosome substrate, Flashplate; assay type: biochemical; details: class symbols; read-out: DOT1L IC50
Description: Determination of IC50. Test compounds were serially diluted 3 fold in DMSO for 10 points and 1 μl was plated in a 384 well microtiter plate. […] 10 μl per well of substrate mix (same assay buffer with 200 nM S-[methyl-^3H]-adenosyl-L methionine, 600 nM of unlabeled […], and 20 nM oligonueleosome) was added to initiate the reaction. Reaction was incubated for 120 minutes at room temperature and quenched with 10 μl per well of 100 μM S-methyl-adenosyl-L methionine. For detection, substrate from 50 μl of reaction was immobilized on a 384 well Streptavidin coated Flashplate (Perkin Elmer) (also coated with 0.2% polyethyleneimine) and read on a Top Count scintillation counter (Perkin Elmer).

DOT1L(1-416), sequence (Q8TEK3 1-416): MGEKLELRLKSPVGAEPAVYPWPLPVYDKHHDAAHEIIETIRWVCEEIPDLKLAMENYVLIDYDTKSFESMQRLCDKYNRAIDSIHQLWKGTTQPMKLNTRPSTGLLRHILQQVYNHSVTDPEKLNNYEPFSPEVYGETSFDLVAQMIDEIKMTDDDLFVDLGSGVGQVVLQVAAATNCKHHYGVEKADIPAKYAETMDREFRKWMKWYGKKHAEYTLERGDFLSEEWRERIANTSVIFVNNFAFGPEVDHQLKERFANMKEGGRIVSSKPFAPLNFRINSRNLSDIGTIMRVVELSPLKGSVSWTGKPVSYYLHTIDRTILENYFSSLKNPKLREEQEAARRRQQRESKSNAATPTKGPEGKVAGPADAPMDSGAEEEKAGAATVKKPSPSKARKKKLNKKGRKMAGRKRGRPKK

SMILES	IC50 [nM]
CN(C[C@H]1C[C@@H](n2ccc3c(N)ncnc32)[C@H](O)[C@@H]1O)C1CC(CCc2nc3cc(C(F)(F)F)ccc3[nH]2)C1 (stereo partly drawn) [Compound 13, (1R,2S,3R,5R)-3-(4-amino-7H-pyrrolo[2,3-d]pyrimidin-7-yl)-5-((methyl(3-(2-(5-(trifluoromethyl)-1H-benzo[d]imidazol-2-yl)ethyl)cyclobutyl)amino)methyl)cyclopentane-1,2-diol]	< 100
COCC(C)(C)c1ccc2[nH]c(CCC3CC(N(C[C@H]4O[C@@H](n5cnc6c(N)ncnc65)[C@H](O)[C@@H]4O)C(C)C)C3)nc2c1 (stereo partly drawn) [Compound 118, (2R,3R,4S,5R)-2-(6-amino-9H-purin-9-yl)-5-((isopropyl(3-(2-(5-(1-methoxy-2-methylpropan-2-yl)-1H-benzo[d]imidazol-2-yl)ethyl)cyclobutyl)amino)methyl) tetrahydrofuran-3,4-diol]	< 100
CN(C[C@H]1C[C@@H](n2ccc3c(N)ncnc32)[C@H](O)[C@@H]1O)[C@H]1C[C@@H](CCc2nc3cc(C(F)(F)F)c(Cl)cc3[nH]2)C1 [Compound 9, (1R,2S,3R,5R)-3-(4-amino-7H-pyrrolo[2,3-d]pyrimidin-7-yl)-5-((((1r,3S)-3-(2-(6-chloro-5-(trifluoromethyl)-1H-benzo[d]imidazol-2-yl)ethyl)cyclobutyl)(methyl)amino)methyl)cyclopentane-1,2-diol]	< 100
CC(C)N(C[C@H]1C[C@@H](n2ccc3c(N)ncnc32)[C@H](O)[C@@H]1O)[C@H]1C[C@H](CCc2nc3cc(OC(F)(F)F)ccc3[nH]2)C1 [Compound 61, (1R,2S,3R,5R)-3-(4-amino-7H-pyrrolo[2,3-d]pyrimidin-7-yl)-5-((isopropyl((1s,3R)-3-(2-(5-(trifluoromethoxy)-1H-benzo[d]imidazol-2-yl)ethyl)cyclobutyl)amino)methyl)cyclopentane-1,2-diol]	100 to 1000
CN(C[C@@H]1C[C@@H](O)[C@H](n2ccc3c(N)ncnc32)C1)[C@H]1C[C@@H](CCc2nc3cc(Cl)c(C(F)(F)F)cc3[nH]2)C1 [Compound 81, (1R,2R,4S)-2-(4-amino-7H-pyrrolo[2,3-d]pyrimidin-7-yl)-4-((((1r,3R)-3-(2-(5-chloro-6-(trifluoromethyl)-1H-benzo[d]imidazol-2-yl)ethyl)cyclobutyl) (methyl)amino)methyl) cyclopentanol]	100 to 1000
CN(C[C@H]1O[C@@H](n2ccc3c(N)ncnc32)[C@H](O)[C@@H]1O)[C@H]1C[C@H](CCc2nc3cc(C(C)(C)C)ccc3[nH]2)C1 [Compound 92, (2R,3R,4S,5R)-2-(4-amino-7H-pyrrolo[2,3-d]pyrimidin-7-yl)-5-((((1s,3R)-3-(2-(5-(tert-butyl)-1H-benzo[d]imidazol-2-yl)ethyl)cyclobutyl) (methyl)amino)methyl) tetrahydrofuran-3,4-diol]	< 100
CC(C)(C)c1ccc2[nH]c(CC[C@H]3C[C@@H](N(CC4CC4)C[C@H]4C[C@@H](n5ccc6c(N)ncnc65)[C@H](O)[C@@H]4O)C3)nc2c1 [Compound 40, (1R,2S,3R,5R)-3-(4-amino-7H-pyrrolo[2,3-d]pyrimidin-7-yl)-5-((((1r,3S)-3-(2-(5-(tert-butyl)-1H-benzo[d]imidazol-2-yl)ethyl)cyclobutyl)(cyclopropylmethyl)amino)methyl)cyclopentane-1,2-diol]	< 100
CC(C)(C)c1ccc2[nH]c(CC[C@H]3C[C@H](N(CC4CC4)C[C@H]4C[C@@H](n5ccc6c(N)ncnc65)[C@H](O)[C@@H]4O)C3)nc2c1 [Compound 54, (1R,2S,3R,5R)-3-(4-amino-7H-pyrrolo[2,3-d]pyrimidin-7-yl)-5-((((1s,3R)-3-(2-(5-(tert-butyl)-1H-benzo[d]imidazol-2-yl)ethyl)cyclobutyl)(cyclopropylmethyl)amino)methyl)cyclopentane-1,2-diol]	< 100
CN(C[C@H]1O[C@@H](n2cnc3c(N)ncnc32)[C@H](O)[C@@H]1O)[C@H]1C[C@H](CCc2nc3cc(C(C)(C)C)ccc3[nH]2)C1 [Compound 72, (2R,3R,4S,5R)-2-(6-amino-9H-purin-9-yl)-5-((((1s,3R)-3-(2-(5-(tert-butyl)-1H-benzo[d]imidazol-2-yl)ethyl)cyclobutyl)(methyl)amino)methyl)tetrahydrofuran-3,4-diol]	< 100
CC(C)N(C[C@H]1O[C@@H](n2cnc3c(N)ncnc32)[C@H](O)[C@@H]1O)[C@H]1C[C@@H](CCc2nc3cc(C4CCC4)ccc3[nH]2)C1 [Compound 115, (2R,3R,4S,5R)-2-(6-amino-9H-purin-9-yl)-5-((((1r,3S)-3-(2-(5-cyclobutyl-1H-benzo[d]imidazol-2-yl)ethyl)cyclobutyl) (isopropyl)amino)methyl)tetrahydrofuran-3,4-diol]	< 100
CC(C)N(C[C@H]1C[C@@H](n2ccc3c(N)ncnc32)[C@H](O)[C@@H]1O)[C@H]1C[C@@H](CCc2nc3cc(OC(F)(F)F)ccc3[nH]2)C1 [Compound 60, (1R,2S,3R,5R)-3-(4-amino-7H-pyrrolo[2,3-d]pyrimidin-7-yl)-5-((isopropyl((1r,3S)-3-(2-(5-(trifluoromethoxy)-1H-benzo[d]imidazol-2-yl)ethyl)cyclobutyl)amino)methyl)cyclopentane-1,2-diol]	< 100
CC(C)(C)c1ccc2[nH]c(CC[C@H]3C[C@@H](N(C[C@H]4C[C@@H](n5ccc6c(N)ncnc65)[C@H](O)[C@@H]4O)C4CCC4)C3)nc2c1 [Compound 46, (1R,2S,3R,5R)-3-(4-amino-7H-pyrrolo[2,3-d]pyrimidin-7-yl)-5-((((1r,3S)-3-(2-(5-(tert-butyl)-1,1-benzo[d]imidazol-2-yl)ethyl)cyclobutyl)(cyclobutyl)amino)methyl)cyclopentane-1,2-diol]	< 100
CC(C)(C)c1ccc2[nH]c(CC[C@H]3C[C@@H](N(C[C@H]4O[C@@H](n5cnc6c(N)ncnc65)[C@H](O)[C@@H]4O)CC(F)(F)F)C3)nc2c1 [Compound 102, (2R,3R,4S,5R)-2-(6-amino-9H-purin-9-yl)-5-((((1r,3S)-3-(2-(5-(tert-butyl)-1H-benzo[d]imidazol-2-yl)ethyl)cyclobutyl) (2,2,2-trifluoroethyl)amino)methyl)tetrahydrofuran-3,4-diol]	100 to 1000
CC(C)N(C[C@H]1O[C@@H](n2cnc3c(N)ncnc32)[C@H](O)[C@@H]1O)[C@H]1C[C@@H](CCc2nc3cc(C4(C#N)CC4)ccc3[nH]2)C1 [Compound 135, 1-(2-(2-((1S,3r)-3-((((2R,3S,4R,5R)-5-(6-amino-9H-purin-9-yl)-3,4-dihydroxytetrahydro-furan-2-yl)methyl)(isopropyl)amino)cyclobutyl)ethyl)-1H-benzo[d]imidazol-5-yl)cyclo-propanecarbonitrile]	< 100
COCC(C)(C)c1ccc2[nH]c(CCC3CC(N(C)C[C@H]4O[C@@H](n5cnc6c(N)ncnc65)[C@H](O)[C@@H]4O)C3)nc2c1 (stereo partly drawn) [Compound 140, (2R,3R,4S,5R)-2-(6-amino-9H-purin-9-yl)-5-(((3-(2-(5-(1-methoxy-2-methylpropan-2-yl)-1H-benzo[d]imidazol-2-yl)ethyl)cyclobutyl) (methyl)amino)methyl) tetrahydrofuran-3,4-diol]	< 100
CN(C[C@H]1C[C@@H](n2ccc3c(N)ncnc32)[C@H](O)[C@@H]1O)[C@H]1C[C@@H](CCc2nc3cc(OC(F)(F)F)ccc3[nH]2)C1 [Compound 37, (1R,2S,3R,5R)-3-(4-amino-7,1-pyrrolo[2,3-d]pyrimidin-7-yl)-5-((methyl((1r,3S)-3-(2-(5-(trifluoromethoxy)-1H-benzo[d]imidazol-2-yl)ethyl)cyclobutyl)amino)methyl)cyclopentane-1,2-diol]	< 100
CCN(C[C@H]1O[C@@H](n2cnc3c(N)ncnc32)[C@H](O)[C@@H]1O)[C@H]1C[C@@H](CCc2nc3cc(C(C)(C)C)ccc3[nH]2)C1 [Compound 73, (2R,3R,4S,5R)-2-(6-amino-9H-purin-9-yl)-5-((((1r,35)-3-(2-(5-(tert-butyl)-1H-benzo[d]imidazol-2-yl)ethyl)cyclobutyl)(ethyl)amino)methyl)tetrahydrofuran-3,4-diol]	< 100
CN(C[C@H]1O[C@@H](n2cnc3c(N)ncnc32)[C@H](O)[C@@H]1O)[C@H]1C[C@@H](CCc2nc3cc(C4CCC4)ccc3[nH]2)C1 [Compound 131, (2R,3R,4S,5R)-2-(6-amino-9H-purin-9-yl)-5-((((1r,3S)-3-(2-(5-cyclobutyl-1H-benzo[d]imidazol-2-yl)ethyl)cyclobutyl) (methyl)amino)methyl) tetrahydrofuran-3,4-diol]	< 100
CCN(C[C@H]1C[C@@H](n2ccc3c(N)ncnc32)[C@H](O)[C@@H]1O)C1CC(CCc2nc3cc(C(C)(C)C)ccc3[nH]2)C1 (stereo partly drawn) [Compound 25, (1R,2S,3R,5R)-3-(4-amino-7H-pyrrolo[2,3-d]pyrimidin-7-yl)-5-(((3-(2-(5-(tert-butyl)-1H-benzo[d]imidazol-2-yl)ethyl)cyclobutyl)(ethyl)amino)methyl)cyclopentane-1,2-diol]	< 100
CC(C)N(C[C@H]1C[C@@H](n2ccc3c(N)ncnc32)[C@H](O)[C@@H]1O)C1CC(CCc2nc3cc(OC(F)(F)F)ccc3[nH]2)C1 (stereo partly drawn) [Compound 56, (1R,2S,3R,5R)-3-(4-amino-7H-pyrrolo[2,3-d]pyrimidin-7-yl)-5-((isopropyl(3-(2-(5-(trifluoromethoxy)-1H-benzo[d]imidazol-2-yl)ethyl)cyclobutyl)amino)methyl)cyclopentane-1,2-diol]	< 100
CN(C[C@H]1O[C@@H](n2cnc3c(N)ncnc32)[C@H](O)[C@@H]1O)[C@H]1C[C@@H](CCc2nc3cc(C4(C#N)CC4)ccc3[nH]2)C1 [Compound 137, 1-(2-(2-((1S,3r)-3-((((2R,3S,4R,5R)-5-(6-amino-9H-purin-9-yl)-3,4-dihydroxytetrahydro-furan-2-yl)methyl)(methyl)amino)cyclobutyl)ethyl)-1H-benzo[d]imidazol-5-yl)cyclo-propanecarbonitrile]	< 100
